For assay [1], the system named is methicillin-sensitive Staphylococcus aureus. The assay can be described thus: MIC by broth micro-dilution (CLSI), methicillin-sensitive S. aureus. The conditions noted are these: MSSA S. aureus ATCC29213. Type of assay: cell-based.
Assay [2] has as its system carbapenem sensitive Escherichia coli. The assay can be described thus: MIC by broth micro-dilution (CLSI), carbapenem sensitive E. coli. In kind it is cell-based. Background: Dilution methods test growth across graded concentrations, often in twofold steps.
The test system of assay [3] is carbapenemase producing K. pneumoniae. The assay can be described thus: MIC by broth micro-dilution (CLSI), carbapenemase producing K. pneumoniae. In kind it is cell-based, Klebsiella pneumoniae.
Assay [4] relates to carbapenem sensitive Pseudomonas aeruginosa. The assay can be described thus: MIC by broth micro-dilution (CLSI), carbapenem sensitive P. aeruginosa. In kind it is cell-based.
The mark [5] stands for this setting: Staphylococcus aureus, ATCC 29213 / MSSA, read-out: MIC.
Where [6] appears, read: Escherichia coli, ATCC25922, ESBL −ve E. coli ATCC25922, read-out: MIC.
Where [7] appears, read: Klebsiella pneumoniae, ATCCBAA1705, KPC-2 K. pneumoniae ATCC BAA-1705, read-out: MIC.
Where [8] appears, read: Pseudomonas aeruginosa, ATCC27853, Meropenem susceptible P. aeruginosa ATCC27853, read-out: MIC.

Values after ≈ are worked out from the molar mass of the structure shown. Where two headings read alike, the source gives them in different places.

We go through 17 compounds from US11180504B2 (ORCHID PHARMA LTD., priority 2016, dated 2021).

The MIC is the smallest concentration in the dilution series that meets the test's criterion for growth inhibition.

`C[C@@H](NC(=O)Cn1cnnn1)[C@H]1C(=O)N2C(C(=O)O)=C(S[C@@H]3CN[C@H](C(=O)N4C[C@H](N)C[C@@H]4CN)C3)[C@H](C)[C@H]12` [Example 473, (4R,5S,6R)-6-((R)-1-(2-(1H-tetrazol-1-yl)acetamido)ethyl)-3-((3S,5S)-5-((2R,4R)-4-amino-2-(aminomethyl)pyrrolidine-1-carbonyl)pyrrolidin-3-ylthio)-4-methyl-7-oxo-1-azabicyclo[3.2.0]hept-2-ene-2-carboxylic acid]: the MIC was 4 mg/L (≈ 7.11 µM) in assay [1] (setting [5]), 0.5 mg/L (≈ 0.889 µM) in assay [2] (setting [6]), 2 mg/L (≈ 3.55 µM) in assay [3] (setting [7]) and 4 mg/L (≈ 7.11 µM) in assay [4] (setting [8]).

As for `C[C@@H](NC(=O)Cn1nnc(C(F)(F)F)n1)[C@H]1C(=O)N2C(C(=O)O)=C(S[C@@H]3CN[C@H](C(=O)N(C)C)C3)[C@H](C)[C@H]12` [Example 335, (4R,5S,4R)-3-((3S,5S)-5-(dimethylcarbamoyl)pyrrolidin-3-ylthio)-4-methyl-7-oxo-6-((R) - 1-(2-(5-(trifluoromethyl)-2H-tetrazol-2-yl)acetamido)ethyl) - 1-azabicyclo[3.2.0]hept-2-ene-2-carboxylic acid], the MIC was 4 mg/L (≈ 7.14 µM) in assay [1] (setting [5]), 1 mg/L (≈ 1.78 µM) in assay [2] (setting [6]), 64 mg/L (≈ 114 µM) in assay [3] (setting [7]) and more than 128 mg/L in assay [4] (setting [8]).

Regarding `C[C@@H](NC(=O)Cn1cnnn1)[C@H]1C(=O)N2C(C(=O)O)=C(S[C@@H]3CN[C@H](C(=O)N4CCC(N)C(F)C4)C3)[C@H](C)[C@H]12` (stereo partly drawn) [Example 433, (4R,5S,6R)-6-((R)-1-(2-(1H-tetrazol-1-yl)acetamido)ethyl)-3-((3S,5S)-5-(4-amino-3-fluoropiperidine-1-carbonyl)pyrrolidin-3-ylthio)-4-methyl-7-oxo-1-azabicyclo[3.2.0]hept-2-ene-2-carboxylic acid], the MIC in assay [1] is 2 mg/L (≈ 3.54 µM); in assay [2] (ESBL −ve E. coli ATCC25922), 0.25 mg/L (≈ 0.442 µM); in assay [3] (KPC-2 K. pneumoniae ATCC BAA-1705), 1 mg/L (≈ 1.77 µM); in assay [4] (Meropenem susceptible P. aeruginosa ATCC27853) it was 1 mg/L (≈ 1.77 µM).

With `C[C@@H](NC(=O)c1ccccc1-n1cnnn1)[C@H]1C(=O)N2C(C(=O)O)=C(S[C@@H]3CN[C@H](C(=O)N(C)C)C3)[C@H](C)[C@H]12` [Example 373], the MIC was 4 mg/L (≈ 7.21 µM) in assay [1] (setting [5]), 32 mg/L (≈ 57.7 µM) in assay [2] (setting [6]), more than 128 mg/L in assay [3] (setting [7]) and more than 128 mg/L in assay [4] (setting [8]).

For the compound `C[C@@H](NC(=O)Cn1cnnn1)[C@H]1C(=O)N2C(C(=O)O)=C(S[C@@H]3CN[C@H](C(=O)N4CC5CC(N)CC5C4)C3)[C@H](C)[C@H]12` (stereo partly drawn) [Example 543, (4R,5S,6R)-6-((R)-1-(2-(1H-tetrazol-1-yl)acetamido)ethyl)-3-((3S,5S)-5-(5-aminooctahydrocyclopenta[c]pyrrole-2-carbonyl)pyrrolidin-3-ylthio)-4-methyl-7-oxo-1-azabicyclo[3.2.0]hept-2-ene-2-carboxylic acid], the MIC in assay [1] (setting [5]) is 2 mg/L (≈ 3.49 µM); in assay [2] (setting [6]), 0.5 mg/L (≈ 0.872 µM); in assay [3] (setting [7]), 1 mg/L (≈ 1.74 µM); in assay [4] (setting [8]) it was 2 mg/L (≈ 3.49 µM).

For the compound `C[C@@H](NC(=O)[C@@H]1CS(=O)(=O)CN1)[C@H]1C(=O)N2C(C(=O)O)=C(S[C@@H]3CN[C@H](CNS(N)(=O)=O)C3)[C@H](C)[C@H]12` [Example 281], the MIC in assay [1] (setting [5]) was determined as 32 mg/L (≈ 56.5 µM); in assay [2] (setting [6]), 8 mg/L (≈ 14.1 µM); in assay [3] (setting [7]) it was 16 mg/L (≈ 28.2 µM); in assay [4] (setting [8]), 64 mg/L (≈ 113 µM).

Take `C[C@@H](NC(=O)Cn1cnnn1)[C@H]1C(=O)N2C(C(=O)O)=C(S[C@@H]3CN[C@H](C(=O)N4C[C@@H](O)C[C@H]4CN)C3)[C@H](C)[C@H]12` [Example 470, (4R,5S,6R)-6-((R)-1-(2-(1H-tetrazol-1-yl)acetamido)ethyl)-3-((3S,5S)-5-((2S,4S)-2-(aminomethyl)-4-hydroxypyrrolidine-1-carbonyl)pyrrolidin-3-ylthio)-4-methyl-7-oxo-1-azabicyclo[3.2.0]hept-2-ene-2-carboxylic acid]: the MIC in assay [1] (setting [5]) was determined as 4 mg/L (≈ 7.1 µM); in assay [2] (setting [6]), 0.5 mg/L (≈ 0.887 µM); in assay [3] (setting [7]), 2 mg/L (≈ 3.55 µM); in assay [4] (setting [8]), 4 mg/L (≈ 7.1 µM).

Turning to `C[C@@H](NC(=O)c1cnccn1)[C@H]1C(=O)N2C(C(=O)O)=C(S[C@@H]3CN[C@H](C(=O)N(C)C)C3)[C@H](C)[C@H]12` [Example 303, (4R,5S,6R)-3-((3S,5S)-5-(dimethylcarbamoyl)pyrrolidin-3-ylthio)-4-methyl-7-oxo-6-((R) - 1-(pyrazine-2-carboxamido)ethyl) - 1-azabicyclo[3.2.0]hept-2-ene-2-carboxylic acid], the MIC in assay [1] (setting [5]) is 2 mg/L (≈ 4.09 µM); in assay [2] (setting [6]), 4 mg/L (≈ 8.19 µM); in assay [3] (setting [7]), 64 mg/L (≈ 131 µM); in assay [4] (setting [8]) it was more than 128 mg/L.

`C[C@@H](NC(=O)Cn1cnnn1)[C@H]1C(=O)N2C(C(=O)O)=C(S[C@@H]3CN[C@H](C(=O)N4C[C@@H]5NCCO[C@@H]5C4)C3)[C@H](C)[C@H]12` [Example 353, (4R,5S,6R)-6-((R)-1-(2-(1H-tetrazol-1-yl)acetamido)ethyl)-4-methyl-3-((3S,5S)-5-((4aS,7aR)-octahydropyrrolo[3,4-b][1,4]oxazine-6-carbonyl)pyrrolidin-3-ylthio)-7-oxo-1-azabicyclo[3.2.0]hept-2-ene-2-carboxylic acid]: the MIC worked out at 16 mg/L (≈ 27.8 µM) in assay [1] (setting [5]), 0.25 mg/L (≈ 0.434 µM) in assay [2] (setting [6]), 2 mg/L (≈ 3.47 µM) in assay [3] (setting [7]) and 16 mg/L (≈ 27.8 µM) in assay [4] (setting [8]).

Regarding `C[C@@H](NC(=O)Cn1cnnn1)[C@H]1C(=O)N2C(C(=O)O)=C(S[C@@H]3CN[C@H](C(=O)N4CCC5(CNC5)C4)C3)[C@H](C)[C@H]12` [Example 502, (4R,5S,6R)-6-((R)-1-(2-(1H-tetrazol-1-yl)acetamido)ethyl)-3-((3S,5S)-5-(2,6-diazaspiro[3.4]octane-6-carbonyl)pyrrolidin-3-ylthio)-4-methyl-7-oxo-1-azabicyclo[3.2.0]hept-2-ene-2-carboxylic acid], the minimum inhibitory concentration (MIC) worked out at 4 mg/L (≈ 7.15 µM) in assay [1] (setting [5]), 0.25 mg/L (≈ 0.447 µM) in assay [2] (setting [6]), 1 mg/L (≈ 1.79 µM) in assay [3] (setting [7]) and 2 mg/L (≈ 3.57 µM) in assay [4] (setting [8]).

For `C[C@@H](NC(=O)CC(N)=O)[C@H]1C(=O)N2C(C(=O)O)=C(S[C@@H]3CN[C@H](C(=O)N4CC[C@@H](N)C4)C3)[C@H](C)[C@H]12` [Example 299, (4R,5S,6R)-6-((R) - 1-(3-amino-3-oxopropanamido)ethyl)-3-((3S,5S)-5-((R)-3-aminopyrrolidine-1-carbonyl)pyrrolidin-3-ylthio)-4-methyl-7-oxo-1-azabicyclo[3.2.0]hept-2-ene-2-carboxylic acid], the MIC in assay [1] (setting [5]) stood at 16 mg/L (≈ 31.5 µM); in assay [2] (setting [6]), 4 mg/L (≈ 7.86 µM); in assay [3] (setting [7]), 8 mg/L (≈ 15.7 µM); in assay [4] (setting [8]) it was 16 mg/L (≈ 31.5 µM).

`C[C@@H](NC(=O)C(F)F)[C@H]1C(=O)N2C(C(=O)O)=C(S[C@@H]3CN[C@H](CNS(=O)(=O)N4CC[C@@H](N)C4)C3)[C@H](C)[C@H]12` [Example 236]: the MIC came out at 2 mg/L (≈ 3.53 µM) in assay [1] (setting [5]), 2 mg/L (≈ 3.53 µM) in assay [2] (setting [6]), 4 mg/L (≈ 7.06 µM) in assay [3] (setting [7]) and 128 mg/L (≈ 226 µM) in assay [4] (setting [8]).

With `C[C@@H](NC(=O)Cn1nnnc1N(C)C)[C@H]1C(=O)N2C(C(=O)O)=C(S[C@@H]3CN[C@H](C(=O)N4CC[C@@H](N)C4)C3)[C@H](C)[C@H]12` [Example 384, (4R,5S,6R)-3-((3S,5S)-5-((R)-3-aminopyrrolidine-1-carbonyl)pyrrolidin-3-ylthio)-6-((R)-1-(2-(5-(dimethylamino)-1H-tetrazol-1-yl)acetamido)ethyl)-4-methyl-7-oxo-1-azabicyclo[3.2.0]hept-2-ene-2-carboxylic acid], the MIC was 4 mg/L (≈ 6.94 µM) in assay [1] (setting [5]), 0.5 mg/L (≈ 0.867 µM) in assay [2] (setting [6]), 4 mg/L (≈ 6.94 µM) in assay [3] (setting [7]) and 64 mg/L (≈ 111 µM) in assay [4] (setting [8]).

For `C[C@@H](NC(=O)Cn1nnnc1N)[C@H]1C(=O)N2C(C(=O)O)=C(S[C@@H]3CN[C@H](C(=O)N(C)C)C3)[C@H](C)[C@H]12` [Example 392, (4R,5S,6R)-6-((R)-1-(2-(5-amino-1H-tetrazol-1-yl)acetamido)ethyl)-3-((3S,5S)-5-(dimethylcarbamoyl)pyrrolidin-3-ylthio)-4-methyl-7-oxo-1-azabicyclo[3.2.0]hept-2-ene-2-carboxylic acid], the MIC in assay [1] (setting [5]) was determined as 4 mg/L (≈ 7.88 µM); in assay [2] (setting [6]) it was 1 mg/L (≈ 1.97 µM); in assay [3] (setting [7]), 4 mg/L (≈ 7.88 µM); in assay [4] (setting [8]), 64 mg/L (≈ 126 µM).

As for `C[C@@H](NC(=O)Cn1cnnn1)[C@H]1C(=O)N2C(C(=O)O)=C(S[C@@H]3CN[C@H](C(=O)N4CCN(CCN)CC4)C3)[C@H](C)[C@H]12` [Example 364, (4R,5S,6R)-6-((R)-1-(2-(1H-tetrazol-1-yl)acetamido)ethyl)-3-((3S,5S)-5-(4-(2-aminoethyl)piperazine-1-carbonyl)pyrrolidin-3-ylthio)-4-methyl-7-oxo-1-azabicyclo[3.2.0]hept-2-ene-2-carboxylic acid], the MIC was determined as 4 mg/L (≈ 6.94 µM) in assay [1] (setting [5]), 0.25 mg/L (≈ 0.434 µM) in assay [2] (setting [6]), 2 mg/L (≈ 3.47 µM) in assay [3] (setting [7]) and 1 mg/L (≈ 1.73 µM) in assay [4] (setting [8]).

In the case of `CNCC(=O)N[C@H](C)[C@H]1C(=O)N2C(C(=O)O)=C(SCCn3cc(O)c(=O)cc3CN)[C@H](C)[C@H]12` [Example 257], the MIC in assay [1] (setting [5]) is more than 128 mg/L; in assay [2] (setting [6]), 4 mg/L (≈ 8.34 µM); in assay [3] (setting [7]), 16 mg/L (≈ 33.4 µM); in assay [4] (setting [8]), 128 mg/L (≈ 267 µM).

In the case of `C[C@@H](NC(=O)Cn1cnnn1)[C@H]1C(=O)N2C(C(=O)[O-])=C(Sc3cnn(CC4CC[N+](C)(CCN)CC4)c3)[C@H](C)[C@H]12` (stereo partly drawn) [Example 594, (4R,5S,6R)-6-((R)-1-(2-(1H-tetrazol-1-yl)acetamido)ethyl)-3-(1-((1-(2-aminoethyl)-1-methylpiperidinium-4-yl)methyl)-1H-pyrazol-4-ylthio)-4-methyl-7-oxo-1-azabicyclo[3.2.0]hept-2-ene-2-carboxylate], the MIC in assay [1] (setting [5]) is 1 mg/L (≈ 1.75 µM); in assay [2] (setting [6]), 32 mg/L (≈ 55.9 µM); in assay [3] (setting [7]), more than 128 mg/L; in assay [4] (setting [8]), more than 128 mg/L.
